Results from patent US8865704B2, “Wnt pathway antagonists” (Siena Biotech S.p.A., priority 2009, dated 2014).
pIC50: −log10 of the molar value.

Tested on: Wnt/β-catenin pathway
Assay: Wnt reporter assay (TCF-Luciferase, Firefly) in DBTRG-05MG cells
Assay type: cell-based
Settings: Homo sapiens, 24 hours after compound addition
Protocol: TCF-Luciferase: Three copies of a 4×TCF responsive elements were cloned into the pcDNA3.1/Zeo(+) vector (Invitrogen) after deletion of the constitutive CMV promoter and the insertion of the Firefly Luciferase from Promega (phFL-TK) to measure the activity of the Wnt/β-catenin pathway. The resulting plasmid was sequenced for quality control.
Cells were grown in 20 μg/ml Zeocin and 20 μg/ml Zeocin plus 30 μg/ml Hygromicin respectively. The cells were plated at a density of 6500 cells/well in poly-D-lysine pre-treated 96 well-plates.
IC50 determination: 36 hours after plating cells were incubated with 8-points (60 μM-40 μM-20 μM-10 μM-5 μM-1.66 μM-0.55 μM-0.185 μM) dilutions compound (0.6% DMSO (v/v)). Each compound was tested in triplicate in single plate. Luciferase detection was done with Dual-Luciferase Reporter Assay System (Promega). 24 hours after compound addition, media was removed and 30 μl of 1× lysis buffer was added to each well for 30 minutes. To each well 45 μl of Dual-Glo Luciferase reagent (Promega) were added and after 1 second delay Luciferase was detected for 1 second using Mithras LB940 instrument. After Firefly luciferase quantification 45 μl of Dual Stop & Glo reagent (Promega) were added to each well and Firefly Renilla was detected using the same parameters described before.
Data were expressed as % of control for Firefly and Renilla luciferase independently; values were calculated using XLFit version 4.2, with a four parameters sigmoid function (XLFit model 205).

Compound | pIC50
CN1C(=O)N(C[C@H]2CC[C@H](C(=O)N3CCN(C(=O)C4CCCC4)CC3)CC2)Cc2ccccc21 [Example 68] | 4.52 to 6.52
COCC(=O)N1CCN(C(=O)[C@H]2CC[C@H](CN3Cc4ccccc4N(C)C3=O)CC2)CC1 [Example 69] | 4.52 to 6.52
O=c1[nH]c2ccccc2c(=O)n1C[C@H]1CC[C@H](C(=O)Nc2cccc3cccnc23)CC1 [Example 70] | 4.52 to 6.52
O=C(C1CCCC1)N1CCN(C(=O)[C@H]2CC[C@H](CN3Cc4ccccc4NC3=O)CC2)CC1 [Example 72] | 4.52 to 6.52
O=C(C1CC1)N1CCN(C(=O)[C@H]2CC[C@H](Cn3c(=O)c4ccccc4n(CC4CC4)c3=O)CC2)CC1 [Example 73] | 4.52 to 6.52
O=C(C1CC1)N1CCN(C(=O)[C@H]2CC[C@H](Cn3c(=O)[nH]c4ccccc43)CC2)CC1 [Example 74] | 4.52 to 6.52
COc1ccc2c(c1)c(=O)n(C[C@H]1CC[C@H](C(=O)N3CCN(C(=O)C4CCCC4)CC3)CC1)c(=O)n2C [Example 76] | 4.52 to 6.52
Cn1c(=O)n(C[C@H]2CC[C@H](C(=O)N3CCN(C(=O)C4CCCO4)CC3)CC2)c(=O)c2ccccc21 (stereo partly shown) [Example 81] | 4.52 to 6.52
O=C(C1CC1)N1CCN(C(=O)[C@H]2CC[C@H](Cn3c(=O)[nH]c4ccc(F)cc4c3=O)CC2)CC1 [Example 82] | 4.52 to 6.52
O=C(C1CC1)N1CCN(C(=O)[C@H]2CC[C@H](Cn3c(=O)c4ccccc4n(C(F)F)c3=O)CC2)CC1 [Example 83] | 4.52 to 6.52
COc1ccc2c(c1)c(=O)n(C[C@H]1CC[C@H](C(=O)N3CCN(C(=O)C4CC4)CC3)CC1)c(=O)n2CC1CC1 [Example 84] | 4.52 to 6.52
O=C(C1CC1)N1CCN(C(=O)[C@H]2CC[C@H](CN3Cc4cc(Cl)ccc4NC3=O)CC2)CC1 [Example 85] | 4.52 to 6.52
COc1ccc2[nH]c(=O)n(C[C@H]3CC[C@H](C(=O)N4CCN(C)C(=O)C4)CC3)c(=O)c2c1 [Example 86] | 4.52 to 6.52
CCN1CCN(C(=O)[C@H]2CC[C@H](Cn3c(=O)[nH]c4ccc(OC)cc4c3=O)CC2)CC1=O [Example 87] | 4.52 to 6.52
COCCN1CCN(C(=O)[C@H]2CC[C@H](Cn3c(=O)[nH]c4ccc(OC)cc4c3=O)CC2)CC1=O [Example 88] | 4.52 to 6.52
COc1ccc2[nH]c(=O)n(C[C@H]3CC[C@H](C(=O)N4CCOCC4)CC3)c(=O)c2c1 [Example 89] | 4.52 to 6.52
COc1ccc2[nH]c(=O)n(C[C@H]3CC[C@H](C(=O)N4CCCOCC4)CC3)c(=O)c2c1 [Example 90] | 4.52 to 6.52
COc1ccc2[nH]c(=O)n(C[C@H]3CC[C@H](C(=O)N4CCN(c5cnccn5)CC4)CC3)c(=O)c2c1 [Example 91] | 4.52 to 6.52
CCN1CCN(C(=O)[C@H]2CC[C@H](Cn3c(=O)c4cc(OC)ccc4n(C)c3=O)CC2)CC1=O [Example 93] | 4.52 to 6.52
COCCN1CCN(C(=O)[C@H]2CC[C@H](Cn3c(=O)c4cc(OC)ccc4n(C)c3=O)CC2)CC1=O [Example 94] | 4.52 to 6.52
Cc1ccc2[nH]c(=O)n(C[C@H]3CC[C@H](C(=O)N4CCN(C(=O)C5CC5)CC4)CC3)c2c1 [Example 95] | 4.52 to 6.52

Compound | pIC50
COc1ccc2[nH]c(=O)n(C[C@H]3CC[C@H](C(=O)N4CCN(C(=O)C(C)(C)F)CC4)CC3)c(=O)c2c1 [Example 96] | 4.52 to 6.52
COc1ccc2[nH]c(=O)n(C[C@H]3CC[C@H](C(=O)N4CCN(C(=O)C5CC5(F)F)CC4)CC3)c(=O)c2c1 (stereo partly shown) [Example 97] | 4.52 to 6.52
COc1ccc2[nH]c(=O)n(C[C@H]3CC[C@H](C(=O)N4CCN(c5ncccn5)CC4)CC3)c(=O)c2c1 [Example 98] | 4.52 to 6.52
CCCC(C)C(=O)N1CCN(C(=O)[C@H]2CC[C@H](Cn3c(=O)[nH]c4ccc(OC)cc4c3=O)CC2)CC1 (stereo partly shown) [Example 100] | 4.52 to 6.52
CCC(C)C(=O)N1CCN(C(=O)[C@H]2CC[C@H](Cn3c(=O)[nH]c4ccc(OC)cc4c3=O)CC2)CC1 (stereo partly shown) [Example 101] | 4.52 to 6.52
COc1ccc2[nH]c(=O)n(C[C@H]3CC[C@H](C(=O)N4CCN(C(=O)c5ccno5)CC4)CC3)c(=O)c2c1 [Example 102] | 4.52 to 6.52
COc1ccc2[nH]c(=O)n(C[C@H]3CC[C@H](C(=O)N4CCN(C(=O)OC(C)C)CC4)CC3)c(=O)c2c1 [Example 103] | 4.52 to 6.52
CCC(C)OC(=O)N1CCN(C(=O)[C@H]2CC[C@H](Cn3c(=O)[nH]c4ccc(OC)cc4c3=O)CC2)CC1 (stereo partly shown) [Example 104] | 4.52 to 6.52
COc1ccc2[nH]c(=O)n(C[C@H]3CC[C@H](C(=O)N4CCN(CC5CC5)C(=O)C4)CC3)c(=O)c2c1 [Example 105] | 4.52 to 6.52
COc1ccc2[nH]c(=O)n(C[C@H]3CC[C@H](C(=O)N4CCN(C(=O)C5CCC5)CC4)CC3)c(=O)c2c1 [Example 106] | 4.52 to 6.52
CC(C)(F)C(=O)N1CCN(C(=O)[C@H]2CC[C@H](Cn3c(=O)[nH]c4ccccc4c3=O)CC2)CC1 [Example 107] | 4.52 to 6.52
O=C(C1CC1(F)F)N1CCN(C(=O)[C@H]2CC[C@H](Cn3c(=O)[nH]c4ccccc4c3=O)CC2)CC1 (stereo partly shown) [Example 108] | 4.52 to 6.52
COc1ccc2[nH]c(=O)n(C[C@H]3CC[C@H](C(=O)N4CCN(C(=O)[C@@H]5CCCO5)CC4)CC3)c(=O)c2c1 [Example 110] | 4.52 to 6.52
O=C(C1CC1)N1CCN(C(=O)[C@H]2CC[C@H](Cn3c(=O)[nH]c4cc(Cl)ccc43)CC2)CC1 [Example 111] | 4.52 to 6.52
O=C(C1CC1)N1CCN(C(=O)[C@H]2CC[C@H](Cn3c(=O)[nH]c4cc(C(F)(F)F)ccc43)CC2)CC1 [Example 112] | 4.52 to 6.52
COc1ccc2[nH]c(=O)n(C[C@H]3CC[C@H](C(=O)Nc4ccncc4)CC3)c(=O)c2c1 [Example 113] | 4.52 to 6.52
COc1ccc2[nH]c(=O)n(C[C@H]3CC[C@H](C(=O)Nc4ccc5oc(C)nc5c4)CC3)c(=O)c2c1 [Example 114] | 4.52 to 6.52
COc1ccc2[nH]c(=O)n(C[C@H]3CC[C@H](C(=O)N4CCN(C(=O)c5cncn5C)CC4)CC3)c(=O)c2c1 [Example 115] | 4.52 to 6.52
COc1ccc2[nH]c(=O)n(C[C@H]3CC[C@H](C(=O)N4CCN(C(=O)c5ccncn5)CC4)CC3)c(=O)c2c1 [Example 117] | 4.52 to 6.52
COc1ccccc1NC(=O)[C@H]1CC[C@H](CN2CCc3ccccc3NC2=O)CC1 [Example 118] | 4.52 to 6.52
COc1ccccc1NC(=O)[C@H]1CC[C@H](CN2C(=O)Cc3ccccc3N(C)C2=O)CC1 [Example 119] | 4.52 to 6.52

Compound | pIC50
COc1ccccc1NC(=O)[C@H]1CC[C@H](CN2C(=O)Cc3ccccc3NC2=O)CC1 [Example 120] | 4.52 to 6.52
COc1ccc2c(c1)c(=O)n(C[C@H]1CC[C@H](C(=O)N3CCN(c4nccs4)CC3)CC1)c(=O)n2C [Example 121] | 4.52 to 6.52
CCC(C)C(=O)N1CCN(C(=O)[C@H]2CC[C@H](Cn3c(=O)c4cc(OC)ccc4n(C)c3=O)CC2)CC1 (stereo partly shown) [Example 123] | 4.52 to 6.52
CCCC(C)C(=O)N1CCN(C(=O)[C@H]2CC[C@H](Cn3c(=O)c4cc(OC)ccc4n(C)c3=O)CC2)CC1 (stereo partly shown) [Example 124] | 4.52 to 6.52
COc1ccc2c(c1)c(=O)n(C[C@H]1CC[C@H](C(=O)N3CCN(C(=O)OCC(C)C)CC3)CC1)c(=O)n2C [Example 125] | 4.52 to 6.52
COc1ccc2[nH]c(=O)n(C[C@H]3CC[C@H](C(=O)N4CCN(C(=O)C5CC5)C[C@H]4C)CC3)c(=O)c2c1 [Example 126] | 4.52 to 6.52
COCC(=O)N1CCN(C(=O)[C@H]2CC[C@H](Cn3c(=O)[nH]c4ccc(OC)cc4c3=O)CC2)[C@H](C)C1 [Example 127] | 4.52 to 6.52
COc1ccc2c(c1)c(=O)n(C[C@H]1CC[C@H](C(=O)N3CCN(C(=O)[C@@H]4CCCO4)CC3)CC1)c(=O)n2C [Example 128] | 4.52 to 6.52
COc1ccc2c(c1)c(=O)n(C[C@H]1CC[C@H](C(=O)N3CCN(C(=O)C4CCC4)CC3)CC1)c(=O)n2C [Example 129] | 4.52 to 6.52
COc1ccc2c(c1)c(=O)n(C[C@H]1CC[C@H](C(=O)N3CCN(C(=O)OC(C)C)CC3)CC1)c(=O)n2C [Example 130] | 4.52 to 6.52
COc1ccc2c(c1)c(=O)n(C[C@H]1CC[C@H](C(=O)N3CCN(C(=O)[C@H]4CCCO4)CC3)CC1)c(=O)n2C [Example 131] | 4.52 to 6.52
COc1ccc2c(c1)c(=O)n(C[C@H]1CC[C@H](C(=O)N3CCN(CC4CC4)C(=O)C3)CC1)c(=O)n2C [Example 132] | 4.52 to 6.52
COCC(=O)N1CCN(C(=O)[C@H]2CC[C@H](Cn3c(=O)[nH]c4ccc(OC)cc4c3=O)CC2)[C@@H](C)C1 [Example 133] | 4.52 to 6.52
COc1ccc2[nH]c(=O)n(C[C@H]3CC[C@H](C(=O)N4CCN(C(=O)C5CC5)CC4)CC3)c2c1 [Example 134] | 4.52 to 6.52
COCCC(=O)N1CCN(C(=O)[C@H]2CC[C@H](Cn3c(=O)c4cc(OC)ccc4n(C)c3=O)CC2)CC1 [Example 137] | 4.52 to 6.52
COc1ccc2c(c1)c(=O)n(C[C@H]1CC[C@H](C(=O)N3CCN(C(=O)C4CC4)C[C@H]3C)CC1)c(=O)n2C [Example 138] | 4.52 to 6.52
COc1ccc2[nH]c(=O)n(C[C@H]3CC[C@H](C(=O)N4CCN(c5ccncc5)CC4)CC3)c(=O)c2c1 [Example 139] | 4.52 to 6.52
COc1ccc2[nH]c(=O)n(C[C@H]3CC[C@H](C(=O)N4CCN(c5cccc(OC)n5)CC4)CC3)c(=O)c2c1 [Example 140] | 4.52 to 6.52
COc1ccc2c(c1)c(=O)n(C[C@H]1CC[C@H](C(=O)N3CCN(C(=O)COC(C)C)CC3)CC1)c(=O)n2C [Example 141] | 4.52 to 6.52
